The results in this text go back to patent US9877981B2, “NAD biosynthesis and precursors for the treatment and prevention of cancer and proliferation” (President and Fellows of Harvard College, priority 2012, dated 2018).

For test [1], the system named is mitochondrial-encoded genes (ND1, Cytb, COX1 and ATP6). In words: qPCR of mitochondrial-encoded genes in gastrocnemius of treated mice. It counts as in vivo. An excerpt: (§1) C57BL/6J mice of 6, 22, or 30 months of age were obtained from the National Institutes of Aging mouse aging colony. Additionally 22 months old caloric restricted mice were also obtained from the National Institutes of Aging mouse aging colony. EGLN1 KO, SIRT1 KO and SIRT1 OE mice were generated as previously described (Minamishima et al., 2008; Price et al., 2012). Mice were acclimated for at least one-week prior to sacrifice. 3, 6, 22 and 24-month-old mice were given interperitoneal (IP) injections of 500 mg NMN/kg body weight per day or the equivalent volume of PBS for 7 consecutive days at 5:00 pm and 7:00 am on day 8 and sacrificed 4 hr after last injection.
(§2) Whole body SIRT1 overexpressor (SIRT1-tg) mice of 6 months of age were given interperitoneal (IP) injections of 300 mg DMOG/kg body weight per day or the equivalent volume of PBS for 5 consecutive days.
(§3) Whole body adult-inducible Egln1 knockout mice (Minamishima et al, 2007) were treated with IP injection of tamoxifen for 3 days after which they were allowed to rest. The mice were given interperitoneal (IP) injections of 500 mg NMN/kg body weight per day or the equivalent volume of PBS for 7 consecutive days at 5:00 pm and 7:00 am on day 8 and sacrificed 4 hr after last injection. All animal studies followed the guidelines of and were approved by the Harvard Institutional Animal Care and Use Committee.
(§4) RNA from skeletal muscle tissue and C2C12 cells were extracted with RNeasy mini kit (Qiagen) according to the instructions and quantified using the NanoDrop 1000 spectrophotometer (Thermo Scientific). cDNA was synthesized with the iSCRIP cDNA synthesis kit (BioRad) using 600 ng of RNA. Quantitative RT-PCR reactions were performed using 1 μM of primers and LightCycler® 480 SYBR Green Master (Roche) on an LightCycler® 480 detection system (Roche). Calculations were performed by a comparative method (2-ΔCT) using 18S as an internal control. For mtDNA analysis, total DNA was extracted with DNeasy blood and tissue kit (Qiagen). mtDNA was amplified using primers specific for the mitochondrial cytochrome c oxidase subunit 2 (COX2) gene and normalized to genomic DNA by amplification of the ribosomal protein s18 (rps18) nuclear gene. Primers were designed using the IDT software (IDT) and the primer sequences can be found in Table 1.
RNA from skeletal muscle and aorta were extracted with RNeasy mini kit (Qiagen) according to the instructions and quantified using the NanoDrop 1000 spectrophotometer (Thermo Scientific). cDNA was synthesized with the iSCRIP cDNA synthesis kit (BioRad) using 600 ng of RNA. Quantitative RT-PCR reactions were performed using 1 μM of primers and LightCycler® 480 SYBR Green Master (Roche) on an LightCycler® 480 detection system (Roche). […]

Test [2] relates to skeletal muscle mitochondria. The test is described as follows: Mitochondrial function in skeletal muscle of treated mice (membrane potential, ATP content, COX activity). It counts as in vivo. As to the method:
C57BL/6J mice of 3, 6, 22, 24, or 30 months of age were obtained from the National Institutes of Aging mouse aging colony. Mice were acclimated for at least one-week prior to sacrifice. 3, and 24-month-old mice were given interperitoneal (IP) injections of 500 mg NMN/kg body weight per day or the equivalent volume of PBS for 7 consecutive days at 5:00 pm and 7:00 am on day 8 and sacrificed 4 hr after last injection. All animal studies followed the guidelines of and were approved by the Harvard Institutional Animal Care and Use Committee
Skeletal muscle mitochondria were isolated as described previously (Frezza et al., Nat. Protoc. 2:287-295 (2007)). Mitochondrial membrane potential, cytochrome c activity and succinate dehydrogenase were determined as described (Brautigan et al., Methods Enzymol. 53:128-164 (1978); Rolo et al., Biochim. Biophys. Acta. 1637:127-132 ([…]); Singer, T. P., Methods Biochem. Anal. 22:123-175 (1974)). ATP content was measured with a commercial kit according to the manufacturer's instructions (Roche).
as §1, §2, §3
Cytochrome c oxidase activity was polarographically determined based on the O2 consumption upon cytochrome c oxidation, as previously described (Brautigan et al., 1978). The reaction was carried out at 25° C. in 1.3 mL of standard respiratory medium (as in mitochondrial respiration) supplemented with 2 μM rotenone, 10 μM oxidized cytochrome c, 0.3 mg TritonX-100. Following addition of the sample, the reaction was initiated by adding 5 mM ascorbate plus 0.25 mM tetramethylphenylene-diamine (TMPD).
ATP content was measured with a commercial kit according to the manufacturer's instructions (Roche).

Test [3] has as its system PGC-1α/β KO myotubes. In words: qPCR of ETC genes in PGC-1α/β KO myotubes. Also on record: expression of mitochondrially-encoded ETC genes (ND1, CYTB, COX1, ATP6): dose or concentration left out as unconfirmed. It counts as cell-based, mouse. How it is done: Primary myoblasts cells were isolated from WT, SIRT1 KO (Price et al., 2012) and PGC-1α/β KO (Zechner et al., 2010) mice as previously described (Price et al., 2012). WT and PGC-1α/β KO primary myoblasts were plated and allowed to differentiate into myotubes by replacing the media with low glucose DMEM supplemented with 2% horse serum (Sigma-Aldrich) for 4 days. After the differentiation the cells were infected with empty vector or flag-SIRT1 adenovirus as described before (Gerhart-Hines et al., 2007). Media was replaced with fresh DMEM supplemented with 2% horse serum (Sigma-Aldrich) for an additional 48 hr and, after that the cells were harvested for the different assays as described. To investigate the role of HIF-1α in genome asynchrony, PGC-1α/β KO primary myotubes were treated for 12 hours with 1 mM DMOG (Sigma) or 10 μM DFO (Sigma), 24 h after infection with empty vector of flag-SIRT1 adenovirus or after 12 h treatment with […] NMN (Sigma).
as §4
On the technique in general: In qPCR the cycle at which signal appears reflects the starting amount.

[4] abbreviates: SIRT1-tg mice, DMOG 300 mg/kg IP per day, 5 days, gastrocnemius.
Where [5] appears, read: Egln1 KO mice treated with NMN 500 mg/kg IP 7 days, compared to WT controls.
Where [6] appears, read: treated 24-month-old mice, NMN 500 mg/kg IP one week, skeletal muscle.

In the case of `COC(=O)CNC(=O)C(=O)OC` [DMOG, dimethyloxaloylglycine], the “increase in expression of mitochondrial-encoded genes observed in SIRT1-tg mice” value in test [1] (setting [4]) is given as “abolished the increase in the expression of mitochondrial-encoded genes”. Moreover, in test [2] (setting [4]), the “increase in ATP levels observed in SIRT1-tg mice” value is “abolished”. In addition, the “effect on NMN-induced expression of mitochondrially-encoded ETC genes” value in test [3] (PGC-1α/β KO myotubes, NMN plus 1 mM DMOG or 10 μM DFO, 12 hours) is “completely abolished”. The “effect on NAD (pyruvate) mediated increases in mitochondrial-encoded genes” value in test [3] (PGC-1α/β KO myotubes, pyruvate in presence of DMOG) is recorded as “inhibited”. Moreover, the “expression of mitochondrial-encoded genes compared to vehicle control” value in test [3] (PGC-1α/β knockout myotubes treated with DMOG) is “induced a decline in the expression of mitochondrial-encoded genes”. In addition, the “effect on induction of mitochondrial ETC genes by SIRT1 overexpression” value in test [3] (PGC-1α/β knockout myotubes with SIRT1 adenovirus, 1 mM DMOG or 10 μM DFO) is “completely blocked”.

For `NC(=O)c1ccc[n+]([C@@H]2O[C@H](COP(=O)([O-])O)[C@@H](O)[C@H]2O)c1` [NMN, nicotinamide mononucleotide], the “expression of mitochondrial-encoded genes” value in test [1] (22-month-old mice, NMN one week, gastrocnemius) is given as “restored”. The “mitochondrial-encoded genes in skeletal muscle” value in test [1] (setting [5]) is listed as “did not restore mitochondrial-encoded genes”. The “ability of NMN to induce mitochondrially-encoded genes” value in test [1] (SIRT1 KO mice vs WT, NMN or PBS, gastrocnemius) is “lost in animals lacking SIRT1”. Besides, the ATP levels result is recorded as “increase in ATP levels” in test [2] (6- and 22-month-old mice, NMN one week, gastrocnemius); “increases in ATP levels” in test [2] (setting [6]). The “ATP levels in skeletal muscle” value in test [2] (setting [5]) is reported as “did not restore”. The “ability of NMN to improve mitochondrial function (membrane potential)” value in test [2] (SIRT1 KO mice vs WT, NMN or PBS, skeletal muscle mitochondria) is listed as “lost in animals lacking SIRT1”. Further, the COX activity entry in test [2] (old mice, NMN one week, gastrocnemius (FIG. 24H)) was “increase”; in test [2] (setting [6]), “increases”. Besides, in test [2] (treated 24-month-old mice, NMN 500 mg/kg IP one week, isolated skeletal muscle mitochondria), the mitochondrial membrane potential result is given as “restoration of mitochondrial membrane potential to the levels of the young mice”. For the same compound, in test [3] (PGC-1α/β KO myotubes incubated with NMN (12 h)), the “expression of mitochondrially-encoded ETC genes (ND1, CYTB, COX1, ATP6)” value is recorded as “induced expression of mitochondrially-encoded ETC genes”.
